# From publication PMC10905675, “INX-315, a Selective CDK2 Inhibitor, Induces Cell Cycle Arrest and Senescence in Solid Tumors” (Cancer Discovery, 2023)
# Tests used:
# [1] = tested on: parental MCF7 and T47D cells; assay: Cell cycle flow cytometry; type: cell-based; details: abemaciclib 500 nmol/L, 7 days
# Experimental: One hour prior to endpoint, either 10 µmol/L BrdU or EdU was applied to the cells. Cells were stained using the Near-IR Fixable Viability Stain (Invitrogen, L34976) for 20 minutes at room temperature. Cells were fixed and permeabilized using FoxP3/Transcription Factor Staining Buffer Set (eBioscience, 00–5523–00; for BrdU-treated cells) or Click-iT fixative (for EdU-treated cells). DNA was denatured using 2N HCl + 0.5% (v/v) Triton X-100 for 30 minutes. […] Cells were then stained with BrdU antibody (clone 3D4, BioLegend, 364118, RRID:AB_2814318) for 1 hour. The EdU Click-iT reaction was performed using a Click-iT EdU Flow Cytometry Assay Kit (Invitrogen, C10418 or C10425). Prior to acquisition on the BD A3 Symphony or FACSCelesta, DNA was stained using FxCycle Violet ReadyFlow Reagent (BrdU) or FxCycle Far Red nucleic acid stain (Invitrogen, F10348) in combination with Rnase (Sigma R4642) (for EdU-treated cells). A minimum of 10,000 live cell events were recorded for each sample and data was analyzed using Flow Jo (Tree Star, RRID:SCR_008520).
# [2] = tested on: palbociclib-resistant MCF7 cells; assay: CellTiter Glo viability assay; type: cell-based; details: Homo sapiens, MCF7, Supp Fig S9B, CDK4/6 inhibitor monotherapy; read-out: IC50
# Experimental: (§1) An exception to this is MCF7PDRCl5-1 cells which were first cultured for 5 days without palbociclib then plated as described. MCF7PDRCl5-1 cells were treated with either a dose curve of the indicated CDK4/6i or a dose curve of INX-315 + 1 µmol/L of the indicated CDK4/6i. Cell viability was determined using the CellTiter-Glo assay (Promega, G9241) following manufacturer's instructions. Plates were processed on either BioTek Synergy2 multi-mode (Agilent) or ClarioSTAR (BMG Labtech) plate readers. T47D and MCF7 cells were seeded into […] plates using BioTek 406 (Aglient) and treated with a ten-point dose concentration from 10 µmol/L to 0.3 nmol/L of INX-315 for 2× doubling times. Plates were fixed with 4% PFA and stained with Rhodamine-Phalloidin (Bio-Trend, 00027) and DAPI (5 mg/mL, Invitrogen, catalog no. D1306). Plates were imaged using CellInsight CX7 LZR and DAPI-positive cells were counted using Thermo Fisher Scientific HCS Studio Cell Analysis Software.
# [3] = tested on: MMTV-rtTA/tetO-HER2 tumors; assay: Transgenic mammary tumor growth; type: in vivo, mice
# Experimental: PDX models were performed by Crown Biosciences (OV5398, GA0103, and GA0114) or XenoSTART (ST4316B). Tumor fragments from stock mice were harvested and implanted subcutaneously into the flank of NOD/SCID mice (OV5398, RRID:IMSR_JAX:001303), BALB/c nude mice (GA0103 and GA0114, RRID:IMSR_RJ:BALB-C-NUDE), or athymic nude mice (Crl:NU(NCr)-Foxn1nu, RRID:IMSR_CRL:490) (ST4316B). For CDX models, female athymic nude mice (Crl:NU(NCr)-Foxn1nu, RRID:IMSR_CRL:490) were inoculated with 1 × 10^7 50% Cultrex OVCAR3 cells in the flank. Experiments performed using MMTV-rtTA/tetO-HER2 mice were performed at the Peter MacCallum Cancer Centre. Tumor formation was induced and sustained in female mice with doxycycline as previously described ([33]). Randomization and treatment in all models began when median tumor volume reached a maximum of 300 mm^3.
# Mice were treated via oral gavage. INX-315 was prepared weekly in 100% PEG400; abemaciclib was prepared as previously described ([33]) and ribociclib (Selleckchem, S7440) was prepared weekly in 0.5% methyl cellulose. To generate abemaciclib-resistant MMTV-rtTA/tetO-HER2 tumors, mice were treated continuously with abemaciclib at a dose of 75 mg/kg until tumors resumed growth as described in text. […]
# [4] = tested on: five cell lines with CCNE1 amplification (ovarian cancer); assay: CellTiter Glo viability assay; type: cell-based; details: six days
# Hs68 = assay: CellTiter Glo viability assay; type: cell-based; details: benign human fibroblast cell line Hs68
# Experimental: as §1
# MKN1 = assay: CellTiter Glo viability assay; type: cell-based; details: 6 days
# Experimental: as §1
SMILES,cells in S-phase [1] [%],IC50 [2] [µM],"tumors with tumor regression (>25% reduction in tumor volume) ([3]; abemaciclib monotherapy, 163 of 183 tumors) [%]","regressing tumors that had resumed growth (acquired resistance) ([3]; by day 35 of abemaciclib treatment, 142 of 163) [%]",sensitivity of CCNE1-amplified lines [4],IC50 (Hs68) [nM],sensitivity of MKN1 (MKN1)
CCN1CCN(Cc2ccc(Nc3ncc(F)c(-c4cc(F)c5nc(C)n(C(C)C)c5c4)n3)nc2)CC1 [abemaciclib],< 1,5.71,89,87,–,–,–
"CC(=O)c1c(C)c2cnc(Nc3ccc(N4CCNCC4)cn3)nc2n(C2CCCC2)c1=O [palbociclib, reference compound]",–,> 10,–,–,not sensitive,26,insensitive
